From US10273227B2, “C5-anilinoquinazoline compounds and their use in treating cancer” (AstraZeneca AB, priority 2017, dated 2019)

Experiments:
Type in all cases: cell-based
[1] = biological target: T1, Ba/F3-V654A (KIT exon11 deletion (557-558) and secondary mutation V654A) (Homo sapiens, UniProt P10721, DEL557-558/V654A); experiment: MTS viability assay, Ba/F3 expressing KIT exon11 deletion (557-558) and V654A; settings: 72 h incubation, top concentration 10 uM
T1 construct: expressed in transfected cells; host or cells: Ba/F3 cells, lentiviral transduction (pLVX-IRES Puro)
Procedure: (§1) Exponentially grown Ba/F3 cells (1.5×10^6 cells in 2 ml medium) were infected with 2 ml of viral suspension in a 6-well plate in the presence of mIL-3 (10 ng/ml) and polybrene (4 μg/ml) (Sigma Aldrich, St. Louis, Mo.) and incubated for 24 h. After 24 h, the cells were centrifuged and the viral supernatant was discarded. The cells were then re-suspended in fresh medium and allowed to recover for another day. The following day, the cells were seeded in complete medium without murine IL-3. After a week or two, when cells started proliferating, a selection was carried out by gradually increasing the puromycin concentration to 0.5 ug/ml. Once the cells were growing exponentially in puromycin, batches of cells were frozen down for banking.
(§2) The impact of KIT inhibitors on the viability of Ba/F3 expressing KIT mutations was determined using an MTS assay, which is a colorimetric sensitive quantification of viable cells in proliferation and cytotoxicity assay. In the MTS assay […] in the presence of phenazine methosulfate (PMS) was used. The mitochondrial reductase forms a formazan which absorbs at 490 nm. Cells in exponential growth phase were added to 384-well plates containing pre-dispensed compounds (top concentration 10 uM, 10-point curve). The cells were incubated for 72 h at 37° C. and 5% CO2. After 72 h, MTS reagent was added to the plates and incubated an additional 2 h at 37° C. before measuring the absorbance at 490 nm on a Tecan microplate reader using Magellan Software (Tecan Trading AG, Switzerland).
(§3) The absorbances were normalized as follows: (Read-Day0 control)/(Day3 control−Day0 control)*100. The GI50 values were generated using Genedata Screener software (Genedata Lexington, Mass.). A non-linear regression with constraints for top and bottom between 100 and −100 and no constraint on the Hill coefficient was used to generate GI50 values. The GI50 values reported below are the calculated mean result of at least 3 biological replicates across all the cell lines tested.

Ba/F3-Parental = experiment: MTS viability assay, Ba/F3 parental cells; settings: Mus musculus, BaF3, 72 h incubation, top concentration 10 uM
Procedure: as §1, §2, §3

[2] = system: TEL-KDR (KDR (K790-V1356) fused to the C-terminus of Tel); experiment: MTS viability assay, Ba/F3 expressing Tel-KDR; settings: 72 h incubation, top concentration 10 uM
Procedure: Tel-KDR myc was cloned into pBCS2004, a retroviral vector, wherein KDR (K790-V1356) is fused to the C-terminus of Tel. Retroviral particles were generated in HEK293T cells. The Tel-KDR plasmid was co-transfected with helper viruses (gag-Pol and VSV-G) into HEK293T cells using calcium phosphate and the virus was harvested 72 h after transfection.
as §1, §2, §3

[3] = biological target: T2, Ba/F3-T670I (KIT exon11 deletion (557-558) and secondary mutation T670I) (Homo sapiens, UniProt P10721, DEL557-558/T670I); experiment: MTS viability assay, Ba/F3 expressing KIT exon11 deletion (557-558) and T670I; settings: 72 h incubation, top concentration 10 uM
T2 construct: expressed in transfected cells; host or cells: Ba/F3 cells, lentiviral transduction (pLVX-IRES Puro)
Procedure: as §1, §2, §3

[4] = biological target: T3, Ba/F3-D816H (KIT exon11 deletion (557-558) and secondary mutation D816H) (Homo sapiens, UniProt P10721, D816H/DEL557-558); experiment: MTS viability assay, Ba/F3 expressing KIT exon11 deletion (557-558) and D816H; settings: 72 h incubation, top concentration 10 uM
T3 construct: expressed in transfected cells; host or cells: Ba/F3 cells, lentiviral transduction (pLVX-IRES Puro)
Procedure: as §1, §2, §3

T3 sequence (P10721 with tags, fused parts or gaps DEL557-558/D816H): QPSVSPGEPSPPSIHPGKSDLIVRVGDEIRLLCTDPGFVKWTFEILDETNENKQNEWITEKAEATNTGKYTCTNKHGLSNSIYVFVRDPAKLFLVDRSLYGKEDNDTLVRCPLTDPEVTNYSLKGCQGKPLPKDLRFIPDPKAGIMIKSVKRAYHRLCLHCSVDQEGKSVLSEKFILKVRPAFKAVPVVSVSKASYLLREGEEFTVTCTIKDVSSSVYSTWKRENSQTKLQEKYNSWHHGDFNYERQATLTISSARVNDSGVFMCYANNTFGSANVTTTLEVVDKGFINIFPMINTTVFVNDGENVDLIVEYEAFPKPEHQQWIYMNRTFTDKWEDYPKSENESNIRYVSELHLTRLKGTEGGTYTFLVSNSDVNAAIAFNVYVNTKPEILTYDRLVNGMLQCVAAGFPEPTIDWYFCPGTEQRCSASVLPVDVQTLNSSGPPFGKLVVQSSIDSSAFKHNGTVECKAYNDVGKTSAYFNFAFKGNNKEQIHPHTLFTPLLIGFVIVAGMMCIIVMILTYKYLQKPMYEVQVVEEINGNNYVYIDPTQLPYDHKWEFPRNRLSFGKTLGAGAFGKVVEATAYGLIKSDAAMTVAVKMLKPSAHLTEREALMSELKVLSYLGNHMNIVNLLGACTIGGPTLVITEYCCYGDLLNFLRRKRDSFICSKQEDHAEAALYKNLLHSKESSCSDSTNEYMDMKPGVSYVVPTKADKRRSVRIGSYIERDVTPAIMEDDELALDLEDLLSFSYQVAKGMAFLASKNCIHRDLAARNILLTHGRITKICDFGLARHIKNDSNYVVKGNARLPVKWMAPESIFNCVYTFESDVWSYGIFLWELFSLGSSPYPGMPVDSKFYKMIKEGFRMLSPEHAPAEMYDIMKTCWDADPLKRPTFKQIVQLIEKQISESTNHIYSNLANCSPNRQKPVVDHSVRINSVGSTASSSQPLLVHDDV
T2 sequence (P10721 with tags, fused parts or gaps DEL557-558/T670I): as the sequence (P10721 with tags, fused parts or gaps DEL557-558/D816H) above, with T643I, H789D counted along it
T1 sequence (P10721 with tags, fused parts or gaps DEL557-558/V654A): as the sequence (P10721 with tags, fused parts or gaps DEL557-558/D816H) above, with V627A, H789D counted along it

SMILES | Ba/F3-V654A GI50 [1] [nM] | GI50 (Ba/F3-Parental) [µM] | GI50 [2] [µM] | Ba/F3-T670I GI50 [3] [µM] | Ba/F3-D816H GI50 [4] [µM]
COc1cc(F)c2c(Nc3ccc(NC(=O)Cn4cc(C(C)C)nn4)cc3)ncnc2c1 [Example 21, N-{4-[(5-Fluoro-7-methoxyquinazolin-4-yl)amino]phenyl}-2-[4-(propan-2-yl)-1H-1,2,3-triazol-1-yl]acetamide] | 2 | ≥ 10 | ≥ 10 | 0.068 | 0.025
COc1cc(OC2CCOCC2)cc2ncnc(Nc3ccc(NC(=O)Cn4cc(C(C)C)nn4)cc3)c12 [Example 10, N-(4-{[5-Methoxy-7-(tetrahydro-2H-pyran-4-yloxy)quinazolin-4-yl]amino}phenyl)-2-[4-(propan-2-yl)-1H-1,2,3-triazol-1-yl]acetamide] | 7 | ≥ 10 | 9.48 | 0.640 | 0.065
COc1cc2ncnc(Nc3ccc(NC(=O)Cn4cc(C(C)C)nn4)cc3)c2c(F)c1OC [Example 2, N-{4-[(5-fluoro-6,7-dimethoxyquinazolin-4-yl)amino]phenyl}-2-[4-(propan-2-yl)-1H-1,2,3-triazol-1-yl]acetamide] | 4 | ≥ 10 | 2.5 | 0.049 | 0.022
CCOc1cc(OCC)c2c(Nc3ccc(NC(=O)Cn4cc(C(C)C)nn4)cc3)ncnc2c1 [Example 19, N-{4-[(5,7-Diethoxyquinazolin-4-yl)amino]phenyl}-2-[4-(propan-2-yl)-1H-1,2,3-triazol-1-yl]acetamide] | 7 | ≥ 10 | ≥ 10 | 0.034 | 0.056
COc1cc(OCCN(C)C)cc2ncnc(Nc3ccc(NC(=O)Cn4cc(C(C)C)nn4)cc3)c12 [Example 17, N-[4-({7-[2-(Dimethylamino)ethoxy]-5-methoxyquinazolin-4-yl}amino)phenyl]-2-[4-(propan-2-yl)-1H-1,2,3-triazol-1-yl]acetamide] | 20 | ≥ 10 | ≥ 10 | 0.627 | 0.088
CCOc1cc(OCCN(C)C)cc2ncnc(Nc3ccc(NC(=O)Cn4cc(C(C)C)nn4)cc3)c12 [Example 6, N-(4-((7-(2-(Dimethylamino)ethoxy)-5-ethoxyquinazolin-4-yl)amino)phenyl)-2-(4-isopropyl-1H-1,2,3-triazol-1-yl)acetamide] | 13 | 2.05 | 2.66 | 0.091 | 0.063
CCOc1cc(OC2CCOCC2)cc2ncnc(Nc3ccc(NC(=O)Cn4cc(C(C)C)nn4)cc3)c12 [Example 5, N-(4-((5-Ethoxy-7-((tetrahydro-2H-pyran-4-yl)oxy)quinazolin-4-yl)amino)phenyl)-2-(4-isopropyl-1H-1,2,3-triazol-1-yl)acetamide] | 41 | 1.87 | 6.18 | 0.591 | 0.138
COc1cc(OC)c2c(Nc3ccc(NC(=O)Cn4cc(C(C)C)nn4)cc3)ncnc2c1 [Example 22, N-{4-[(5,7-Dimethoxyquinazolin-4-yl)amino]phenyl}-2-[4-(propan-2-yl)-1H-1,2,3-triazol-1-yl]acetamide] | 3 | ≥ 10 | 5.35 | 0.106 | 0.048
COc1cc(OC)c2c(Nc3ccc(NC(=O)Cn4cc(C(C)C)nn4)cc3F)ncnc2c1 [Example 1, N-(4-[(5,7-dimethoxyquinazolin-4-yl)amino]-3-fluorophenyl)-2-[4-(propan-2-yl)-1H-1,2,3-triazol-1-yl]acetamide] | 7 | ≥ 10 | ≥ 10 | 0.162 | 0.141
COCCOc1cc(F)c2c(Nc3ccc(NC(=O)Cn4cc(C(C)C)nn4)cc3)ncnc2c1 [Example 12, N-(4-{[5-Fluoro-7-(2-methoxyethoxy)quinazolin-4-yl]amino}phenyl)-2-[4-(propan-2-yl)-1H-1,2,3-triazol-1-yl]acetamide] | 2 | ≥ 10 | 1.3 | 0.015 | 0.007
COc1cc(OC(C)C)cc2ncnc(Nc3ccc(NC(=O)Cn4cc(C(C)C)nn4)cc3)c12 [Example 15, N-(4-{[5-Methoxy-7-(propan-2-yloxy)quinazolin-4-yl]amino}phenyl)-2-[4-(propan-2-yl)-1H-1,2,3-triazol-1-yl]acetamide] | 11 | ≥ 10 | 4.18 | 0.254 | 0.035
CCOc1cc(OC)c2c(Nc3ccc(NC(=O)Cn4cc(C(C)C)nn4)cc3)ncnc2c1 [Example 18, N-{4-[(7-Ethoxy-5-methoxyquinazolin-4-yl)amino]phenyl}-2-[4-(propan-2-yl)-1H-1,2,3-triazol-1-yl]acetamide] | 3 | ≥ 10 | 6.01 | 0.066 | 0.021
CCOc1cc(OCCOC)cc2ncnc(Nc3ccc(NC(=O)Cn4cc(C(C)C)nn4)cc3)c12 [Example 8, N-(4-((5-Ethoxy-7-(2-methoxyethoxy)quinazolin-4-yl)amino)phenyl)-2-(4-isopropyl-1H-1,2,3-triazol-1-yl)acetamide] | 15 | 2.55 | 2.15 | 0.032 | 0.044
CCOc1cc(OC)cc2ncnc(Nc3ccc(NC(=O)Cn4cc(C(C)C)nn4)cc3)c12 [Example 7, N-(4-((5-Ethoxy-7-methoxyquinazolin-4-yl)amino)phenyl)-2-(4-isopropyl-1H-1,2,3-triazol-1-yl)acetamide] | 7 | ≥ 10 | 3.19 | 0.073 | 0.079
COc1cc(OC2COC2)cc2ncnc(Nc3ccc(NC(=O)Cn4cc(C(C)C)nn4)cc3)c12 [Example 16, N-(4-{[5-Methoxy-7-(oxetan-3-yloxy)quinazolin-4-yl]amino}phenyl)-2-[4-(propan-2-yl)-1H-1,2,3-triazol-1-yl]acetamide] | 12 | ≥ 10 | 9.36 | 0.502 | 0.090
